The nature of experiment [1]: Extraction of mined oil sands with solvents (bitumen recovery).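 On Recovered Bitumen: Bitumen mass includes 3 to 7 wt% residual solvent.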 The method, then:
The quality of dimethyl sulfide as an oil recovery agent based on the miscibility of dimethyl sulfide with a crude oil relative to other compounds was evaluated. […] Each oil sands sample was weighed and placed in a cellulose extraction thimble that was placed on a porous polyethylene support disk in a jacketed glass cylinder with a drip rate control valve. Each oil sands sample was then extracted with a selected solvent at a selected temperature (10° C. or 30° C.) in a cyclic contact and drain experiment, where the contact time ranged from 15 to 60 minutes. Fresh contacting solvent was applied and the cyclic extraction repeated until the fluid drained from the apparatus became pale brown in color.
The extracted fluids were stripped of solvent using a rotary evaporator and thereafter vacuum dried to remove residual solvent. […] The residual solids and extraction thimble were air dried, weighed, and then vacuum dried. […] Collectively, the weight of the solid or sample and thimble recovered after extraction plus the quantity of bitumen recovered after extraction divided by the weight of the initial oil sands sample plus the thimble provide the mass closure for the extractions.

Experiment [2] in a line: SARA analysis of extracted bitumen samples. To be noted: bitumen extracted at 30° C. The method, then: The bitumen samples extracted at 30° C. from each oil sands sample were evaluated by SARA analysis to determine the saturates, aromatics, resins, and asphaltenes composition of the bitumen samples extracted by each solvent.
[3] abbreviates: extraction at 10 C., not corrected for residual solvent.
Where [4] appears, read: extraction at 30 C., not corrected for residual solvent.

Where “and” joins values, the source holds several entries; their conditions need not be identical. Equal values may be shown once. Read-outs that look alike come from different tables or passages of the source.

On to `ClCCl` [Dichloromethane, dichloromethane], for which the results for the “Weight Change” value in experiment [1] (extraction at 10 C.) and in experiment [1] (extraction at 30 C.) were 18.9 g and 17.7 g, respectively. Further, the “Recovered Bitumen” value in experiment [1] (setting [3]) is 17.66 g; in experiment [1] (setting [4]) it was 16.30 g.

In the case of `ClC(Cl)Cl` [Chloroform, chloroform], in experiment [1], the “Recovered Bitumen” value is 17.85 g and 18.62 g; the “Weight Change” value is 18.7 g and 19.4 g.

On to `C1CCOC1` [Tetrahydrofuran, tetrahydrofuran], for which the “Weight Change” value amounted to 17.7 g in experiment [1] (extraction at 10 C.) and 18.0 g in experiment [1] (extraction at 30 C.). Also, the “Recovered Bitumen” value in experiment [1] (setting [3]) was 16.72 g; in experiment [1] (setting [4]), 17.67 g.

Take `Cc1ccccc1C` [o-Xylene, o-xylene]: the “Weight Change” value came out at 17.3 g in experiment [1] (extraction at 10 C.) and 19.5 g in experiment [1] (extraction at 30 C.). Besides, the “Recovered Bitumen” value in experiment [1] (setting [3]) was 17.36 g; in experiment [1] (setting [4]), 17.37 g.

Consider `CCOC(C)=O` [Ethyl Acetate, ethyl acetate], for which, in experiment [2], the “extraction of / miscibility with asphaltenes” value is listed as “much less effective”. The entries for the “Weight Change” value in experiment [1] (extraction at 10 C.) and in experiment [1] (extraction at 30 C.) were 11.2 g and 17.7 g, respectively. Also, the “Recovered Bitumen” value in experiment [1] (setting [3]) is listed as 10.32 g; in experiment [1] (setting [4]), 11.46 g.

On to `S=C=S` [Carbon Disulfide, carbon disulfide], for which the “Weight Change” value turned out to be 16.8 g in experiment [1] (extraction at 10 C.) and 16.4 g in experiment [1] (extraction at 30 C.). Besides, the “Recovered Bitumen” value amounted to 16.62 g in experiment [1] (setting [3]) and 16.43 g in experiment [1] (setting [4]).

Source of the values: patent publication US20140000883A1, “PETROLEUM RECOVERY PROCESS AND SYSTEM” (Shell Oil Company, priority 2012, published 2014).
